{"source": "patent US20250360235A1", "about": "“RADI[…] AND METHOD FOR RADIOLABELLING” (Telix Innovations SA, priority 2024, published 2025)", "key": {"[1]": {"assay": "pH of [68Ga]PSMA-11 solution (acceptance 4.0-5.0)", "type": "physicochemical", "conditions": "for pH of the gallium-68 labelled PSMA-11 solution: immediately after the radiolabelling procedure", "procedure": "(§1) 100 μl of the ascorbic acid solution (equivalent to 25 mg ascorbic acid) was taken from vial 3, and was filtered through a 5 μm filter needle. The sodium ascorbate solution was subsequently added to vail 2, and mixed thoroughly. The obtained content of vial 2 was added to vial 1, and again mixed thoroughly. To this obtained vail 1, the eluate, comprising the gallium-68, was added to obtain a gallium-68 labelled PSMA-11 solution. Optionally, a 2.5 ml 0.9% sodium chloride solution may be added to increase the volume and/or to amend the osmolality to be under 1000 mOsm/kg.\nThe pH of the gallium-68 labelled PSMA-11 solution was 4.5 immediately after the radiolabelling procedure and was unchanged after 4 hours.\nas §1, with “a Gallium-68” for “a gallium-68”, “a” for “a 2.5 ml 0.9%”, “volume of the obtained Gallium-68 labelled PSMA-11 solution” for “volume”, “mOsm/kg. The pH of the gallium-68 labelled PSMA-11 solution was 4.5 immediately after the radiolabelling procedure and was unchanged after 4 hours.” for “mOsm/kg.”\nas §1, with “a Gallium-68” for “a gallium-68”, “a” for “a 2.5 ml 0.9%”, “volume of the obtained Gallium-68 labelled PSMA-11 solution” for “volume”, “mOsm/kg. The pH of the gallium-68 labelled PSMA-11 solution was 4.5 immediately after the radiolabelling procedure and was unchanged after 6 hours.” for “mOsm/kg.”\n(§2) Table 1 to Table 5 show the results of various radiolabelling experiments on radiochemical purity and the chelation yield. The radiolabelling experiments in the tables are carried out as described in: • Example 1 for when the gallium-68 source is GE Liquid target generator and EZAG GalliaPharm generator; • Example 2 for when the gallium-68 source is IRE Galli Eo generator; • Example 3 for when the gallium-68 source is GE solid target generator;\n(§3) However, the experiments were carried out with the amount of ascorbic acid as indicated in the Tables 1 to 5, and the activity as indicated in the Tables 1 to 5. Radiochemical purities were measured at various times (T0, T1, T4, T6) after the radiolabelled experiments have been conducted.\n(§4) The kits of Example 1, Example 2 or Example 3, with amounts of ascorbic acid as set out in Table 7 were used in the experiments for the ascorbic acid bracketing matrix. Three strengths of [^68Ga]Ga-PSMA-11 will be tested, i.e. 50 mCi/ml, 7 mCi/ml and 1 mCi/ml. Radiochemical purity was determined at different time points (TO, T1, T4 or T6), as set out in Table 7."}, "[2]": {"assay": "Drug product stability against radiolysis with ascorbic acid", "type": "physicochemical", "procedure": "as §2, §3, §4"}}}
{"smiles": "O=C([O-])CN(CCN(CC(=O)[O-])Cc1cc(CCC(=O)NCCCCCC(=O)NCCCC[C@H](NC(=O)N[C@@H](CCC(=O)O)C(=O)O)C(=O)O)ccc1[O-])Cc1cc(CCC(=O)O)ccc1[O-].[68Ga+3].[OH3+]", "note": "[[^68Ga]PSMA-11, gallium-68 radiolabelled Glu-urea-Lys-HBED-CC (gozetotide or PSMA-11)]", "values": [{"measurement": "pH", "setting": "[1]; 50 mg ascorbic acid, 560 mCi, 71.1 mCi/mL, GE Solid Target, n=1, T0", "result": "C (C = conforms to specifications)"}, {"measurement": "pH", "setting": "[1]; 50 mg ascorbic acid, 560 mCi, 71.1 mCi/mL, GE Solid Target, n=1, T6 (6 h)", "result": "C (C = conforms to specifications)"}, {"measurement": "pH of the gallium-68 labelled PSMA-11 solution", "setting": "[1]; Example 1 kit (25 mg ascorbic acid; EZAG GalliaPharm or GE Liquid, 60-70 mCi)", "result": 4.5}, {"measurement": "pH of the gallium-68 labelled PSMA-11 solution, change", "setting": "[1]; Example 1 kit, after 4 hours", "result": "unchanged"}, {"measurement": "pH of the gallium-68 labelled PSMA-11 solution", "setting": "[1]; Example 2 kit (25 mg ascorbic acid; IRE Galli Eo, 60-70 mCi)", "result": 4.5}, {"measurement": "pH of the gallium-68 labelled PSMA-11 solution, change", "setting": "[1]; Example 2 kit, after 4 hours", "result": "unchanged"}, {"measurement": "pH of the gallium-68 labelled PSMA-11 solution", "setting": "[1]; Example 3 kit (25 mg ascorbic acid; solid target, 350-600 mCi)", "result": 4.5}, {"measurement": "pH of the gallium-68 labelled PSMA-11 solution, change", "setting": "[1]; Example 3 kit, after 6 hours", "result": "unchanged"}, {"measurement": "pH", "setting": "[1]; bracketing ~1 mCi/mL, 18.75 mg ascorbic acid, 8.9-11.5 mCi, 0.85-1.09 mCi/mL, IRE Galli Eo, n=2, T0", "result": "C (C = Conforms to specifications)"}, {"measurement": "pH", "setting": "[1]; bracketing ~1 mCi/mL, 18.75 mg ascorbic acid, 8.9-11.5 mCi, 0.85-1.09 mCi/mL, IRE Galli Eo, n=2, T1 (1 h)", "result": "C (C = Conforms to specifications)"}, {"measurement": "pH", "setting": "[1]; bracketing ~1 mCi/mL, 25 mg ascorbic acid, 8.8-12.7 mCi, 0.84-1.21 mCi/mL, 2 × IRE Galli Eo, n=2, T0", "result": "C (C = Conforms to specifications)"}, {"measurement": "pH", "setting": "[1]; bracketing ~1 mCi/mL, 25 mg ascorbic acid, 8.8-12.7 mCi, 0.84-1.21 mCi/mL, 2 × IRE Galli Eo, n=2, T1 (1 h)", "result": "C (C = Conforms to specifications)"}, {"measurement": "pH", "setting": "[1]; bracketing ~1 mCi/mL, 31.25 mg ascorbic acid, 15.2-26.9 mCi, 1.44-2.54 mCi/mL, EZAG GalliaPharm, n=2, T0", "result": "C (C = Conforms to specifications)"}, {"measurement": "pH", "setting": "[1]; bracketing ~1 mCi/mL, 31.25 mg ascorbic acid, 15.2-26.9 mCi, 1.44-2.54 mCi/mL, EZAG GalliaPharm, n=2, T1 (1 h)", "result": "C (C = Conforms to specifications)"}, {"measurement": "pH", "setting": "[1]; bracketing ~7 mCi/mL, 18.75 mg ascorbic acid, 51.0-58.0 mCi, 5.55-6.5 mCi/mL, IRE Galli Eo, n=2, T0", "result": "C (C = Conforms to specifications)"}, {"measurement": "pH", "setting": "[1]; bracketing ~7 mCi/mL, 18.75 mg ascorbic acid, 51.0-58.0 mCi, 5.55-6.5 mCi/mL, IRE Galli Eo, n=2, T4 (4 h)", "result": "C (C = Conforms to specifications)"}, {"measurement": "pH", "setting": "[1]; bracketing ~7 mCi/mL, 25 mg ascorbic acid, 51.6-74.4 mCi, 4.56-6.92 mCi/mL, 3 × GE Liquid Target, 3 × IRE Galli Eo, 3 × EZAG GalliaPharm, n=9, T0", "result": "C (C = Conforms to specifications)"}, {"measurement": "pH", "setting": "[1]; bracketing ~7 mCi/mL, 25 mg ascorbic acid, 51.6-74.4 mCi, 4.56-6.92 mCi/mL, 3 × GE Liquid Target, 3 × IRE Galli Eo, 3 × EZAG GalliaPharm, n=9, T4 (4 h)", "result": "C (C = Conforms to specifications)"}, {"measurement": "pH", "setting": "[1]; bracketing ~7 mCi/mL, 31.25 mg ascorbic acid, 61.5-62.0 mCi, 5.85-5.88 mCi/mL, EZAG GalliaPharm, n=2, T0", "result": "C (C = Conforms to specifications)"}, {"measurement": "pH", "setting": "[1]; bracketing ~7 mCi/mL, 31.25 mg ascorbic acid, 61.5-62.0 mCi, 5.85-5.88 mCi/mL, EZAG GalliaPharm, n=2, T4 (4 h)", "result": "C (C = Conforms to specifications)"}, {"measurement": "pH", "setting": "[1]; bracketing ~50 mCi/mL, 20 mg ascorbic acid, 514-544 mCi, 48.3-51.9 mCi/mL, GE Solid Target, n=2, T0", "result": "C (C = Conforms to specifications)"}, {"measurement": "pH", "setting": "[1]; bracketing ~50 mCi/mL, 20 mg ascorbic acid, 514-544 mCi, 48.3-51.9 mCi/mL, GE Solid Target, n=2, T6 (6 h)", "result": "C (C = Conforms to specifications)"}, {"measurement": "pH", "setting": "[1]; bracketing ~50 mCi/mL, 25 mg ascorbic acid, 537-551 mCi, 50.2-51.6 mCi/mL, GE Solid Target, n=3, T0", "result": "C (C = Conforms to specifications)"}, {"measurement": "pH", "setting": "[1]; bracketing ~50 mCi/mL, 25 mg ascorbic acid, 537-551 mCi, 50.2-51.6 mCi/mL, GE Solid Target, n=3, T6 (6 h)", "result": "C (C = Conforms to specifications)"}, {"measurement": "pH", "setting": "[1]; bracketing ~50 mCi/mL, 31.25 mg ascorbic acid, 500-544 mCi, 48.1-51.7 mCi/mL, GE Solid Target, n=2, T0", "result": "C (C = Conforms to specifications)"}, {"measurement": "pH", "setting": "[1]; bracketing ~50 mCi/mL, 31.25 mg ascorbic acid, 500-544 mCi, 48.1-51.7 mCi/mL, GE Solid Target, n=2, T6 (6 h)", "result": "C (C = Conforms to specifications)"}, {"measurement": "pH", "setting": "[1]; control, 0 mg ascorbic acid, 70 mCi, GE Solid Target, n=1, T0", "result": "C (C = all results conform to specifications)"}, {"measurement": "pH", "setting": "[1]; control, 0 mg ascorbic acid, 70 mCi, GE Solid Target, n=1, T4 (4 h)", "result": "C (C = all results conform to specifications)"}, {"measurement": "pH", "setting": "[1]; validation batches, 25 mg ascorbic acid, 51.6-62.7 mCi, 4.56-5.88 mCi/mL, IRE Galli Eo, n=3, T0", "result": "C (C = all results conform to specifications)"}, {"measurement": "pH", "setting": "[1]; validation batches, 25 mg ascorbic acid, 51.6-62.7 mCi, 4.56-5.88 mCi/mL, IRE Galli Eo, n=3, T4 (4 h)", "result": "C (C = all results conform to specifications)"}, {"measurement": "pH", "setting": "[1]; validation batches, 25 mg ascorbic acid, 53.3-74.4 mCi, 5.03-6.92 mCi/mL, GE Liquid target, n=3, T0", "result": "C (C = all results conform to specifications)"}, {"measurement": "pH", "setting": "[1]; validation batches, 25 mg ascorbic acid, 53.3-74.4 mCi, 5.03-6.92 mCi/mL, GE Liquid target, n=3, T4 (4 h)", "result": "C (C = all results conform to specifications)"}, {"measurement": "pH", "setting": "[1]; validation batches, 25 mg ascorbic acid, 65.0-66.4 mCi, 5.74-6.15 mCi/mL, EZAG GalliaPharm, n=3, T0", "result": "C (C = all results conform to specifications)"}, {"measurement": "pH", "setting": "[1]; validation batches, 25 mg ascorbic acid, 65.0-66.4 mCi, 5.74-6.15 mCi/mL, EZAG GalliaPharm, n=3, T4 (4 h)", "result": "C (C = all results conform to specifications)"}, {"measurement": "pH", "setting": "[1]; validation batches, 25 mg ascorbic acid, 537-551 mCi, 50.2-51.6 mCi/mL, GE Solid Target, n=3, T0", "result": "C (C = all results conform to specifications)"}, {"measurement": "pH", "setting": "[1]; validation batches, 25 mg ascorbic acid, 537-551 mCi, 50.2-51.6 mCi/mL, GE Solid Target, n=3, T6 (6 h)", "result": "C (C = all results conform to specifications)"}, {"measurement": "pH", "setting": "[1]; validation batches, 25 mg ascorbic acid, 555-564 mCi, 51.1-52.7 mCi/mL, ARTMS Solid Target, n=3, T0", "result": "C (C = all results conform to specifications)"}, {"measurement": "pH", "setting": "[1]; validation batches, 25 mg ascorbic acid, 555-564 mCi, 51.1-52.7 mCi/mL, ARTMS Solid Target, n=3, T6 (6 h)", "result": "C (C = all results conform to specifications)"}, {"measurement": "time for which stability is maintained", "setting": "[2]; 20 mg ascorbic acid, highest strength 48.3-51.9 mCi/mL (worst case), Table 8", "result": "up to 6 hours"}, {"measurement": "time for which the formulation is stabilized", "setting": "[2]; 25 mg ascorbic acid, Table 3", "result": "up to 4 hours"}, {"measurement": "time for which ascorbic acid is an effective radio-stabilizer / stability maintained", "setting": "[2]; 10-50 mg ascorbic acid, 458-560 mCi starting activity, 48.3-71.1 mCi/mL, Table 2", "result": "up to 6 hours"}, {"measurement": "stability", "setting": "[2]; 18.75-31.25 mg ascorbic acid, 5.1-5.88 mCi/mL and 0.84-2.54 mCi/mL, Tables 9 and 10", "result": "stability of the [^68Ga]PSMA-11 is maintained"}]}
